Source: patent publication US11433068B2, “Treatment of cancers having alterations within the SWI/SNF chromatin remodeling complex” (THE GENERAL HOSPITAL CORPORATION, priority 2016, dated 2022)

What was measured:
ARID2-deficient cells = experiment: Selective susceptibility of ARID2-knockdown melanoma lines to G9a inhibitors (FIG. 3); type: cell-based; settings: ARID2-knockdown of two different melanoma lines
[1] = system: ARID2-deficient melanomas UACC62 cells; experiment: Quantification of cell number using crystal violet staining (FIGS. 4A, 4B); type: cell-based
[2] = system: melanoma cell lines (n=22); experiment: LD50 of melanoma cell lines versus ARID2 mutational status (FIGS. 5A, 5B); type: cell-based; settings: 22 melanoma cell lines; ARID2 mutant vs other lines
Text: LD50 value of each melanoma cell line plotted for the two G9a inhibitors UNC0638 and BIX-01294. (n=22). ARID2 mutant cell lines indicated in closed circles.

H3K9 = experiment: Histone western blot of cells treated with G9a inhibitors (FIGS. 6A, 6B); type: cell-based; settings: UACC257 cell line
Text: (§1) The G9a and EZH2 methyltransferases are known to target H3K9 and H3K27, respectively.

[3] = system: ARID2-deficient cell lines; experiment: Combination therapy heatmaps, cell viability, isogenically matched engineered melanoma lines (FIG. 8); type: cell-based; settings: ARID2-deficient vs matched lines
Text: FIG. 8 summarizes the combination therapy on isogenically matched engineered ARID-deficient melanoma cell lines. Heatmaps showing cell viability after treatment with the G9a inhibitor BIX-01294 in combination with other small molecule inhibitors (bromodomain inhibitor JQ1 and BRAF inhibitor PLX).

[4] = system: ARID-deficient LOX-IMVI cell line; experiment: Combination therapy heatmaps, cell viability, endogenous ARID-deficient melanoma lines (FIG. 9); type: cell-based; settings: G9a inhibitor in combination with HDAC inhibitor SAHA; LOX-IMVI compared to ARID wildtype A375
Text: FIG. 9 summarizes the combination therapy on endogenous ARID-deficient melanoma cell lines.

[5] = system: melanoma cell and melanocyte; experiment: Viability by cell-titer Glo assay (FIGS. 14A, 14B); type: cell-based; settings: varying amounts; melanoma cells and melanocytes
Description: FIGS. 14A and 14B show melanoma cell and melanocyte are sensitive to G9a inhibitors. Indicated cell types were treated with varying amounts of (FIG. 14A) UNC0638 or (FIG. 14B) BIX01294 and viability was measured by cell-titer Glo assay.

H3K27 = experiment: Histone western blot of cells treated with EZH2 inhibitors (FIGS. 6A, 6B); type: cell-based; settings: UACC257 cell line
Text: as §1

[6] = system: UACC257 human melanoma cells with ARID2 deficiency; experiment: Dose response of melanoma cells to the G9a inhibitor (FIG. 2); type: cell-based; settings: UACC257 shARID2 knockdown vs isogenically matched control (shLuc) cells
Description: ARID2 deficiency is simulated the cells using an RNAi shARID2 to knockdown expression of ARID2. For control, the same cell lines are treated with a control RNAi shLuc instead of shARID2.

[7] = system: G9a-amplified melanoma cell line, K029; experiment: Tumor growth of subcutaneously inoculated K029 cells in SCID mice (FIG. 16); type: in vivo; settings: K029 subcutaneous in SCID mice; 2.5 mg/kg daily ip from 8 days after inoculation
Description: G9a-amplified melanoma cell line, K029, was subcutaneously inoculated on SCID mice (5×10^6 cells/[…] PBS). Vehicle (10% DMSO/PBS) or UNC0642 (2.5 mg/kg) was daily administrated by ip injection 8 days after K029 inoculation.

[8] = BIX-01294 in combination with bromodomain inhibitor JQ1

With `COc1cc2nc(N3CCCN(C)CC3)nc(NC3CCN(Cc4ccccc4)CC3)c2cc1OC` [BIX-01294] the “sensitivity of ARID2-knockdown cells to G9a inhibitors” value (ARID2-deficient cells) was “sensitive”, the “cell number (crystal violet staining)” value [1] was “selective vulnerability” and the “sensitivity (LD50) versus ARID2 mutation” value [2] was “ARID2 mutation predicts the sensitivity”. For the same molecule, the “methylation marks at H3K9 (histone western blot)” value (H3K9) was “selective and specific decrease in the methylation marks”, the “drug synergy (cell viability)” value ([3]; BIX-01294 in combination with BRAF inhibitor PLX) was “selectively enhanced” and the “drug synergy (cell viability)” value [3, 8] was “selectively enhanced”. For the same molecule, the “drug synergy (cell viability)” value [4] was “selectively enhanced” and the “viability (cell-titer Glo)” value [5] was “sensitive”.
In the case of `CC[C@H](C)n1cc(C)c2c(C(=O)NCc3c(C)cc(C)[nH]c3=O)cc(-c3ccc(N4CCNCC4)nc3)cc21` [GSK126], the “methylation marks at H3K27 (histone western blot)” value (H3K27) is reported as “selective and specific decrease in the methylation marks”.
For `Cc1sc2c(c1C)C(c1ccc(Cl)cc1)=N[C@@H](CC(=O)OC(C)(C)C)c1nnc(C)n1-2` [JQ1], the “drug synergy (cell viability)” value [3, 8] was “selectively enhanced”.
In the case of `O=C(CCCCCCC(=O)Nc1ccccc1)NO` [SAHA, suberoylanilide hydroxamic acid], the “drug synergy (cell viability)” value [4] is reported as “selectively enhanced”.
In the case of `COc1cc2c(NC3CCN(C(C)C)CC3)nc(C3CCCCC3)nc2cc1OCCCN1CCCC1` [UNC0638], the “susceptibility to the G9a inhibitor (dose response)” value [6] is reported as “more susceptible”, the “sensitivity of ARID2-knockdown cells to G9a inhibitors” value (ARID2-deficient cells) is reported as “sensitive” and the “cell number (crystal violet staining)” value [1] is reported as “selective vulnerability”. For the same molecule, the “sensitivity (LD50) versus ARID2 mutation” value [2] was “ARID2 mutation predicts the sensitivity”, the “methylation marks at H3K9 (histone western blot)” value (H3K9) was “selective and specific decrease in the methylation marks” and the “drug synergy (cell viability)” value [4] was “selectively enhanced”. The “viability (cell-titer Glo)” value [5] was “sensitive”.
For `COc1cc2c(NC3CCN(C(C)C)CC3)nc(N3CCC(F)(F)CC3)nc2cc1OCCCN1CCCC1` [UNC0642], the tumor growth [7] was “effectively suppress tumor growth”.
